Data: patent US20230203029A1 (priority 2020, published 2023)
Like-named read-outs stand apart in the source and are kept apart here.

Experiments:
[1] = target: T1, recombinant human MERTK expressed in live cells (HEK 293, MERTK-Nanoluc fusion vector) (Homo sapiens, UniProt Q12866); experiment: Assay 2 MERTK cellular target engagement (NanoBRET TE) assay; type: cell-based
T1 construct: host or cells: HEK 293
T1 sequence (Q12866 21-999): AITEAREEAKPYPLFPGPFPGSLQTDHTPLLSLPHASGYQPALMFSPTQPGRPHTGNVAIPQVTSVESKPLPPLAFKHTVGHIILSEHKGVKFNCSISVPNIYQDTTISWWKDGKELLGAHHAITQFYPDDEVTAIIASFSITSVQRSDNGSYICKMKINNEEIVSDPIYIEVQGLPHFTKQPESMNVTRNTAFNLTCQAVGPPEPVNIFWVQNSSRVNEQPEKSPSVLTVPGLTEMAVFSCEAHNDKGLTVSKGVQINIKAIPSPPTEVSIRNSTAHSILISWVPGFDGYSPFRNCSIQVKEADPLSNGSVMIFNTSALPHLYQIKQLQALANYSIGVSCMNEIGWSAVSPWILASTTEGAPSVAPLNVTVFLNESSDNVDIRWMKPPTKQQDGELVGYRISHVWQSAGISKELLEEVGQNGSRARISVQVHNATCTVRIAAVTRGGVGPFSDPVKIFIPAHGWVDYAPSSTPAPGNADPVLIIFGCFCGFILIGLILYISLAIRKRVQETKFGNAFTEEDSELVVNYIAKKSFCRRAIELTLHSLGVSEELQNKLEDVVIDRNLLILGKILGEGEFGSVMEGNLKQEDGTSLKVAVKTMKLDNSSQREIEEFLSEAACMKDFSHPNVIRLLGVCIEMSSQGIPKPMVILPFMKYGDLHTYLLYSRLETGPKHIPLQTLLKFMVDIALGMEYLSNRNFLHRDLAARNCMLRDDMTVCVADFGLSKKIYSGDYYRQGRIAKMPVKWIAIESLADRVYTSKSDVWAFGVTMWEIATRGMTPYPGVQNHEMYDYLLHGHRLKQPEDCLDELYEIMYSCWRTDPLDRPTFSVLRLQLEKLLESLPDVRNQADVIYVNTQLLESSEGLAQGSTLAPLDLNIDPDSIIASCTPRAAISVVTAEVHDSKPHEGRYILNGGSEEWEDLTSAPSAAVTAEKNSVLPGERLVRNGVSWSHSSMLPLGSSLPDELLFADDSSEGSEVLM

[2] = target: T2, Ba/F3 Pro B-cell line expressing BCR-human AXL kinase domain fusion protein (Homo sapiens, UniProt P30530); experiment: Assay 5 Ba/F3 cell survival assay, BCR-Axl; type: cell-based; details: read-out: BCR-Axl Ba/F3 IC50, 48 h, CellTiter-Glo
T2 construct: P11274 (Breakpoint cluster region protein)
T2 sequence (P30530 536-807 limits assumed): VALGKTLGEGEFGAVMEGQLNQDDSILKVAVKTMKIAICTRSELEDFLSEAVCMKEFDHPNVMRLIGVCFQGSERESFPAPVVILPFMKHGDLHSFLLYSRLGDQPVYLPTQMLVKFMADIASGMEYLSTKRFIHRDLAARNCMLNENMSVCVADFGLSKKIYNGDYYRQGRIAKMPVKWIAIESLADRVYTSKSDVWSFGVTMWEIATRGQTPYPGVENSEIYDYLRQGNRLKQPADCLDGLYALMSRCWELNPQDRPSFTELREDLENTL
Method in brief: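 Ba/F3 cells dependent on BCR-AXL or TEL-MERTK fusion kinase (IL3-free; IL3 only for control lines) treated with compound 48 h at 37 °C, 0.25% DMSO. Viability by CellTiter-Glo luminescence; IC50 for half-maximal inhibition of survival from 4-parameter variable-slope fit.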

[3] = target: T3, human MERTK cytoplasmic domain (Homo sapiens, UniProt Q12866); experiment: biochemical
T3 construct: human MERTK cytoplasmic domain (Carna Biosciences 08-108); purchased Carna Biosciences 08-108
Procedure: Assay 1a—MERTK HTRF KinEASE-TK Assay
The enzymatic reaction was carried out for 30 min at room temperature. 10 μL TK Antibody-Cryptate/Streptavidin-XL665 (Cisbio 610SAXLG) was then added for 60 min, including EDTA containing detection buffer (Cisbio 62SDBRDF) to stop the reaction.

[4] = HEK 293 cells, tracer K9, 2 h at 37° C., read-out: Assay 2 Cell TE MER IC50
[5] = 30 uM ATP, read-out: Assay 1a Mer IC50 30 uM ATP

## CC(C)n1cc(C(=O)Nc2ccc(Oc3ccnc4cnc(N5CCNCC5)cc34)cc2)c(=O)c(-c2ccc(F)cc2)c1 [Example 13, 5-(4-Fluorophenyl)-1-isopropyl-4-oxo-N-[4-[(6-piperazin-1-yl-1,7-naphthyridin-4-yl)oxy]phenyl]pyridine-3-carboxamide]
[1]; [4]
  IC50: 6.7 nM
[2]
  IC50: 13 nM
[3]; [5]
  IC50: 1 nM

## O=C(Nc1ccc(Oc2ccnc3cnc(N4CCN(C5COC5)CC4)cc23)cn1)c1ccnn(-c2ccc(F)cc2)c1=O [Example 20, 2-(4-fluorophenyl)-N-[5-[[6-[4-(oxetan-3-yl)piperazin-1-yl]-1,7-naphthyridin-4-yl]oxy]-2-pyridyl]-3-oxo-pyridazine-4-carboxamide]
[2]
  IC50: 16 nM
[3]; [5]
  IC50: 3 nM

## CC(C)n1cc(C(=O)Nc2ccc(Oc3ccnc4cnc(C(=O)NC5CCN(C)CC5)cc34)cn2)c(=O)n(-c2ccc(F)cc2)c1=O [Example 27.5, 4-[[6-[[3-(4-fluorophenyl)-1-isopropyl-2,4-dioxo-pyrimidine-5-carbonyl]amino]-3-pyridyl]oxy]-N-(1-methyl-4-piperidyl)-1,7-naphthyridine-6-carboxamide]
[1]; [4]
  IC50: 30.5 nM
[2]
  IC50: 2 nM
[3]; [5]
  IC50: 15 nM

## O=C(Nc1ccc(Oc2ccnc3cnc(N4CCNCC4)cc23)cc1)c1cccn(-c2ccc(F)cc2)c1=O [Example 12.2, 1-(4-fluorophenyl)-2-oxo-N-[4-[(6-piperazin-1-yl-1,7-naphthyridin-4-yl)oxy]phenyl]pyridine-3-carboxamide]
[1]; [4]
  IC50: 18.3 nM
[2]
  IC50: 48 nM
[3]; [5]
  IC50: 20 nM

## CC(C)n1cc(C(=O)Nc2ccc(Oc3ccnc4cnc(C(=O)NC5CCN(C)CC5)cc34)cc2)c(=O)c(-c2ccc(F)cc2)c1 [Example 37.1, 4-[4-[[5-(4-fluorophenyl)-1-isopropyl-4-oxo-pyridine-3-carbonyl]amino]phenoxy]-N-(1-methyl-4-piperidyl)-1,7-naphthyridine-6-carboxamide]
[1]; [4]
  IC50: 8.3 nM
[2]
  IC50: 2 nM
[3]; [5]
  IC50: 2 nM

## CN1CCC(NC(=O)c2cc3c(Oc4ccc(NC(=O)c5cccn(-c6ccccc6)c5=O)cc4F)ccnc3cn2)CC1 [Example 33, 4-[2-fluoro-4-[(2-oxo-1-phenyl-pyridine-3-carbonyl)amino]phenoxy]-N-(1-methyl-4-piperidyl)-1,7-naphthyridine-6-carboxamide]
[1]; [4]
  IC50: 74.3 nM
[2]
  IC50: 30 nM
[3]; [5]
  IC50: 8 nM

## CN1CCC(NC(=O)c2cc3c(Oc4ccc(NC(=O)c5cn(C)cc(-c6ccc(F)cc6)c5=O)cc4)ccnc3cn2)CC1 [Example 37, 4-[4-[[5-(4-fluorophenyl)-1-methyl-4-oxo-pyridine-3-carbonyl]amino]phenoxy]-N-(1-methyl-4-piperidyl)-1,7-naphthyridine-6-carboxamide]
[1]; [4]
  IC50: 41.4 nM
[2]
  IC50: 17 nM
[3]; [5]
  IC50: 3 nM

## CN1CCC(NC(=O)c2cc3c(Oc4ccc(NC(=O)c5cn(C6CC6)c(=O)n(-c6ccc(F)cc6)c5=O)cc4)ccnc3cn2)CC1 [Example 15, 4-[4-[[1-Cyclopropyl-3-(4-fluorophenyl)-2,4-dioxo-pyrimidine-5-carbonyl]amino]phenoxy]-N-(1-methyl-4-piperidyl)-1,7-naphthyridine-6-carboxamide]
[1]; [4]
  IC50: 133 nM
[2]
  IC50: 14 nM
[3]; [5]
  IC50: 22 nM

## O=C(Nc1ccc(Oc2ccnc3cnc(N4CCNCC4)cc23)cc1)c1cn(C2CC2)c(=O)n(-c2ccc(F)cc2)c1=O [Example 36, 1-cyclopropyl-3-(4-fluorophenyl)-2,4-dioxo-N-[4-[(6-piperazin-1-yl-1,7-naphthyridin-4-yl)oxy]phenyl]pyrimidine-5-carboxamide]
[1]; [4]
  IC50: 68.1 nM
[2]
  IC50: 34 nM
[3]; [5]
  IC50: 20 nM

## CN1CCC(NC(=O)c2cc3c(Nc4ccc(NC(=O)c5cccn(-c6ccccc6)c5=O)cc4)ccnc3cn2)CC1 [Example 3, N-(1-methyl-4-piperidyl)-4-[4-[(2-oxo-1-phenyl-pyridine-3-carbonyl)amino]anilino]-1,7-naphthyridine-6-carboxamide]
[1]; [4]
  IC50: 26.3 nM
[2]
  IC50: 45 nM
[3]; [5]
  IC50: 55 nM

## C[C@H](CO)n1cc(C(=O)Nc2ccc(Oc3ccnc4cnc(C(=O)NC5CCN(C)CC5)cc34)cc2)c(=O)n(-c2ccc(F)cc2)c1=O [Example 14, 4-[4-[[3-(4-Fluorophenyl)-2,4-dioxo-1-[(1R)-2-hydroxy-1-methyl-ethyl]pyrimidine-5-carbonyl]amino]phenoxy]-N-(1-methyl-4-piperidyl)-1,7-naphthyridine-6-carboxamide]
[1]; [4]
  IC50: 75.9 nM
[2]
  IC50: 7 nM
[3]; [5]
  IC50: 14 nM

## CC(C)n1cc(C(=O)Nc2ccc(Oc3ccnc4cnc(N5CCNCC5)cc34)cc2)c(=O)n(-c2ccc(F)cn2)c1=O [Example 12.4, 3-(5-fluoro-2-pyridyl)-1-isopropyl-2,4-dioxo-N-[4-[(6-piperazin-1-yl-1,7-naphthyridin-4-yl)oxy]phenyl]pyrimidine-5-carboxamide]
[1]; [4]
  IC50: 45.4 nM
[2]
  IC50: 12 nM
[3]; [5]
  IC50: 8 nM

## Cn1cc(C(=O)Nc2ccc(Oc3ccnc4cnc(N5CCNCC5)cc34)cc2)c(=O)c(-c2ccc(F)cc2)c1 [Example 13.1, 5-(4-fluorophenyl)-1-methyl-4-oxo-N-[4-[(6-piperazin-1-yl-1,7-naphthyridin-4-yl)oxy]phenyl]pyridine-3-carboxamide]
[1]; [4]
  IC50: 12.4 nM
[2]
  IC50: 22 nM
[3]; [5]
  IC50: 4 nM

## Cc1cc(NC(=O)c2cccn(-c3ccccc3)c2=O)ccc1Oc1ccnc2cnc(N3CCNCC3)cc12 [Example 30, N-[3-methyl-4-[(6-piperazin-1-yl-1,7-naphthyridin-4-yl)oxy]phenyl]-2-oxo-1-phenyl-pyridine-3-carboxamide]
[1]
  IC50: 244 nM
[2]
  IC50: 470 nM
[3]
  IC50: 13 nM

## CC(C)n1cc(C(=O)Nc2ccc(Oc3ccnc4cnc(N5CCNCC5)cc34)cc2)c(=O)n(-c2ccccn2)c1=O [Example 12.3, 1-isopropyl-2,4-dioxo-N-[4-[(6-piperazin-1-yl-1,7-naphthyridin-4-yl)oxy]phenyl]-3-(2-pyridyl)pyrimidine-5-carboxamide]
[1]; [4]
  IC50: 244 nM
[2]
  IC50: 64 nM
[3]; [5]
  IC50: 56 nM
